Measurements from ChEMBL document CHEMBL3885881, “DrugMatrix”.

Organism: Rattus norvegicus
Assay: DrugMatrix - Regimen: Daily Repeat
Assay type: toxicity, organism-based, Sprague-Dawley
Set-up: regimen Daily Repeat, gender Male, age 6-8 weeks
Details: in vivo, po, route oral GAVAGE, vehicle .5 % CMC; for ABSOLUTE BASOPHIL / ABSOLUTE EOSINOPHIL / ABSOLUTE LYMPHOCYTE / ABSOLUTE MONOCYTE / ABSOLUTE SEGMENTED NEUTROPHIL / BASOPHIL / EOSINOPHIL / ERYTHROCYTE COUNT / HEMATOCRIT / HEMOGLOBIN / LEUKOCYTE COUNT / LYMPHOCYTE / MEAN CORPUSCULAR HEMOGLOBIN / MEAN CORPUSCULAR HEMOGLOBIN CONCENTRATION / MEAN CORPUSCULAR VOLUME / MONOCYTE / NEUTROPHIL / NUCLEATED RED BLOOD CELLS / PLATELET COUNT: tissue Blood; for ALANINE AMINOTRANSFERASE / ALBUMIN / ALKALINE PHOSPHATASE / ASPARTATE AMINOTRANSFERASE / BLOOD UREA NITROGEN / CARBON DIOXIDE / CHLORIDE / CHOLESTEROL / CREATINE PHOSPHOKINASE / CREATININE / GLUCOSE / LACTATE DEHYDROGENASE / LIPASE / PHOSPHORUS / POTASSIUM / SODIUM / TOTAL BILIRUBIN / TOTAL PROTEIN / URIC ACID: tissue Plasma
[1] = 40 mg/kg, 120 h, dose level Low, time 5 day
[2] = 1200 mg/kg, 72 h, dose level High, time 3 day
[3] = 1200 mg/kg, 120 h, dose level High, time 5 day

For `C[C@@](Cc1ccc(O)c(O)c1)(NN)C(=O)O.O` [CARBIDOPA], the “ABSOLUTE BASOPHIL” value [1] was 0 CELLS/uL, the “ABSOLUTE EOSINOPHIL” value [1] was 155.33 CELLS/uL and the “ABSOLUTE LYMPHOCYTE” value [1] was 12037.67 CELLS/uL. For the same compound, the “ABSOLUTE MONOCYTE” value [1] was 0 CELLS/uL, the “ABSOLUTE SEGMENTED NEUTROPHIL” value [1] was 1407 CELLS/uL and the BASOPHIL [1] was 0%. For the same compound, the EOSINOPHIL [1] was 1%, the “ERYTHROCYTE COUNT” value [1] was 5.47 x10E6/uL and the HEMATOCRIT [1] was 34.83%. The HEMOGLOBIN [1] was 13.23 G/DL, the “LEUKOCYTE COUNT” value [1] was 13.6 x10E3/uL and the LYMPHOCYTE [1] was 88.33%. The “MEAN CORPUSCULAR HEMOGLOBIN” value [1] was 24.23 pg, the “MEAN CORPUSCULAR HEMOGLOBIN CONCENTRATION” value [1] was 38 G/DL and the “MEAN CORPUSCULAR VOLUME” value [1] was 63.7 fL. For the same compound, the MONOCYTE [1] was 0%, the NEUTROPHIL [1] was 10.67% and the “NUCLEATED RED BLOOD CELLS” value [1] was 0 /100WBC. For the same compound, the “PLATELET COUNT” value [1] was 1237.67 x10E3/uL, the “ALANINE AMINOTRANSFERASE” value [1] was 28.67 u/L and the ALBUMIN [1] was 4.33 G/DL. For the same compound, the “ALKALINE PHOSPHATASE” value [1] was 366.33 u/L, the “ASPARTATE AMINOTRANSFERASE” value [1] was 83 u/L and the “BLOOD UREA NITROGEN” value [1] was 16 mg/dL. The “CARBON DIOXIDE” value [1] was 26 mmol/L, the CHLORIDE [1] was 102.33 MEQ/L and the CHOLESTEROL [1] was 65.67 mg/dL. The “CREATINE PHOSPHOKINASE” value [1] was 277.33 u/L, the CREATININE [1] was 0.2 mg/dL and the GLUCOSE [1] was 155.67 mg/dL. For the same compound, the “LACTATE DEHYDROGENASE” value [1] was 251 u/L, the LIPASE [1] was 8.33 u/L and the PHOSPHORUS [1] was 12.53 mg/dL. For the same compound, the POTASSIUM [1] was 6.15 MEQ/L, the SODIUM [1] was 144.4 MEQ/L and the “TOTAL BILIRUBIN” value [1] was 0.2 mg/dL. The “TOTAL PROTEIN” value [1] was 6.03 G/DL, the “URIC ACID” value [1] was 1.4 mg/dL and the “ABSOLUTE BASOPHIL” value [2] was 0 CELLS/uL. For the same compound, the “ABSOLUTE EOSINOPHIL” value [2] was 309.67 CELLS/uL, the “ABSOLUTE LYMPHOCYTE” value [2] was 11320 CELLS/uL and the “ABSOLUTE MONOCYTE” value [2] was 0 CELLS/uL. For the same compound, the “ABSOLUTE SEGMENTED NEUTROPHIL” value [2] was 1103.67 CELLS/uL, the BASOPHIL [2] was 0% and the EOSINOPHIL [2] was 2.33%. The “ERYTHROCYTE COUNT” value [2] was 5.55 x10E6/uL, the HEMATOCRIT [2] was 35.43% and the HEMOGLOBIN [2] was 13.47 G/DL. For the same compound, the “LEUKOCYTE COUNT” value [2] was 12.73 x10E3/uL, the LYMPHOCYTE [2] was 88.67% and the “MEAN CORPUSCULAR HEMOGLOBIN” value [2] was 24.3 pg. The “MEAN CORPUSCULAR HEMOGLOBIN CONCENTRATION” value [2] was 38.03 G/DL, the “MEAN CORPUSCULAR VOLUME” value [2] was 63.83 fL and the MONOCYTE [2] was 0%. For the same compound, the NEUTROPHIL [2] was 9%, the “NUCLEATED RED BLOOD CELLS” value [2] was 0 /100WBC and the “PLATELET COUNT” value [2] was 1345.33 x10E3/uL. The “ALANINE AMINOTRANSFERASE” value [2] was 8.67 u/L, the ALBUMIN [2] was 4.63 G/DL and the “ALKALINE PHOSPHATASE” value [2] was 300.67 u/L. For the same compound, the “ASPARTATE AMINOTRANSFERASE” value [2] was 64.67 u/L, the “BLOOD UREA NITROGEN” value [2] was 22.33 mg/dL and the “CARBON DIOXIDE” value [2] was 26 mmol/L. For the same compound, the CHLORIDE [2] was 99 MEQ/L, the CHOLESTEROL [2] was 92.33 mg/dL and the “CREATINE PHOSPHOKINASE” value [2] was 315 u/L. For the same compound, the CREATININE [2] was 0.24 mg/dL, the GLUCOSE [2] was 171.33 mg/dL and the “LACTATE DEHYDROGENASE” value [2] was 80 u/L. The LIPASE [2] was 8.67 u/L, the PHOSPHORUS [2] was 12.73 mg/dL and the POTASSIUM [2] was 6.79 MEQ/L. For the same compound, the SODIUM [2] was 143.93 MEQ/L, the “TOTAL BILIRUBIN” value [2] was 0.17 mg/dL and the “TOTAL PROTEIN” value [2] was 6.5 G/DL. The “URIC ACID” value [2] was 1.6 mg/dL, the “ABSOLUTE BASOPHIL” value [3] was 0 CELLS/uL and the “ABSOLUTE EOSINOPHIL” value [3] was 0 CELLS/uL. For the same compound, the “ABSOLUTE LYMPHOCYTE” value [3] was 11666 CELLS/uL, the “ABSOLUTE MONOCYTE” value [3] was 86.67 CELLS/uL and the “ABSOLUTE SEGMENTED NEUTROPHIL” value [3] was 847.33 CELLS/uL. The BASOPHIL [3] was 0%, the EOSINOPHIL [3] was 0% and the “ERYTHROCYTE COUNT” value [3] was 6.03 x10E6/uL. For the same compound, the HEMATOCRIT [3] was 37.47%, the HEMOGLOBIN [3] was 14.13 G/DL and the “LEUKOCYTE COUNT” value [3] was 12.6 x10E3/uL. For the same compound, the LYMPHOCYTE [3] was 92.33%, the “MEAN CORPUSCULAR HEMOGLOBIN” value [3] was 23.43 pg and the “MEAN CORPUSCULAR HEMOGLOBIN CONCENTRATION” value [3] was 37.7 G/DL. The “MEAN CORPUSCULAR VOLUME” value [3] was 62.1 fL, the MONOCYTE [3] was 0.67% and the NEUTROPHIL [3] was 7%. For the same compound, the “NUCLEATED RED BLOOD CELLS” value [3] was 0 /100WBC, the “PLATELET COUNT” value [3] was 1184.67 x10E3/uL and the “ALANINE AMINOTRANSFERASE” value [3] was 6.67 u/L. For the same compound, the ALBUMIN [3] was 4.57 G/DL, the “ALKALINE PHOSPHATASE” value [3] was 323.33 u/L and the “ASPARTATE AMINOTRANSFERASE” value [3] was 44 u/L. For the same compound, the “BLOOD UREA NITROGEN” value [3] was 20 mg/dL, the “CARBON DIOXIDE” value [3] was 28 mmol/L and the CHLORIDE [3] was 101.33 MEQ/L. The CHOLESTEROL [3] was 58.67 mg/dL, the “CREATINE PHOSPHOKINASE” value [3] was 151.67 u/L and the CREATININE [3] was 0.21 mg/dL. For the same compound, the GLUCOSE [3] was 157.67 mg/dL, the “LACTATE DEHYDROGENASE” value [3] was 98 u/L and the LIPASE [3] was 8 u/L. The PHOSPHORUS [3] was 11.57 mg/dL, the POTASSIUM [3] was 6.41 MEQ/L and the SODIUM [3] was 146.5 MEQ/L. The “TOTAL BILIRUBIN” value [3] was 0.17 mg/dL, the “TOTAL PROTEIN” value [3] was 6.27 G/DL and the “URIC ACID” value [3] was 1.5 mg/dL.
